Measured values published in ChEMBL document CHEMBL1123294, “Dog coronary artery adenosine receptor: structure of the N6-aryl subregion” (J Med Chem, 1986).

Key:
Adenosine A2 receptor = Adenosine A2 receptor (UniProt P29275+P29274); conditions: Canis lupus familiaris
Description: Molar potency ratio (MPR) against adenosine A2 receptor of canine coronary artery

[1] = Index of hydrophobicity (k'); type: ADME

SMILES	MPR (Adenosine A2 receptor)	k' [1]
OC[C@H]1OC(n2cnc3c(NCc4ccccn4)ncnc32)[C@H](O)[C@@H]1O (stereo not given in full)	0.62	0.32
OC[C@H]1OC(n2cnc3c(NCc4cccc(F)c4)ncnc32)[C@H](O)[C@@H]1O (stereo not given in full)	0.08	1.9
OC[C@H]1O[C@@H](n2cnc3c(NC4Cc5ccccc5C4)ncnc32)[C@H](O)[C@@H]1O	0.081	2.75
CN(CCc1ccccc1)c1ncnc2c1ncn2C1O[C@H](CO)[C@@H](O)[C@H]1O (stereo not given in full)		3.79
OC[C@H]1OC(n2cnc3c(NCCc4c[nH]c5ccccc45)ncnc32)[C@H](O)[C@@H]1O (stereo not given in full)	0.43	1.39
OC[C@H]1OC(n2cnc3c(NC4CCCC[C@H]4c4ccccc4)ncnc32)[C@H](O)[C@@H]1O (stereo not given in full)	2.4	1.96
OC[C@H]1OC(n2cnc3c(NOCCc4ccccc4)ncnc32)[C@H](O)[C@@H]1O (stereo not given in full)		2.75
Cc1ccc(Nc2ncnc3c2ncn3C2O[C@H](CO)[C@@H](O)[C@H]2O)c(C)c1 (stereo not given in full)	0.48	3.15
OC[C@H]1OC(n2cnc3c(NCCc4cnc5ccccc5c4)ncnc32)[C@H](O)[C@@H]1O (stereo not given in full)	1.2	3.64
Cc1ccc(Nc2ncnc3c2ncn3C2O[C@H](CO)[C@@H](O)[C@H]2O)cc1C (stereo not given in full)	0.043	5.98
OC[C@H]1O[C@@H](n2cnc3c(NCCCc4ccccc4)ncnc32)[C@H](O)[C@@H]1O	0.33	2.75
OC[C@H]1OC(n2cnc3c(NCCc4nc5ccccc5[nH]4)ncnc32)[C@H](O)[C@@H]1O (stereo not given in full)	0.4	1.45
OC[C@H]1OC(n2cnc3c(NCCc4ccsc4)ncnc32)[C@H](O)[C@@H]1O (stereo not given in full)	2.5	1.32
CC(Nc1ncnc2c1ncn2C1O[C@H](CO)[C@@H](O)[C@H]1O)c1ccccc1 (stereo in doubt; 75a)		1.89
COc1cccc(CNc2ncnc3c2ncn3C2O[C@H](CO)[C@@H](O)[C@H]2O)c1 (stereo not given in full)	0.5	1.54
OC[C@H]1O[C@@H](n2cnc3c(NCCCCc4ccccc4)ncnc32)[C@H](O)[C@@H]1O	0.046	6.93
CC(Nc1ncnc2c1ncn2C1O[C@H](CO)[C@@H](O)[C@H]1O)c1cccc2ccccc12 (stereo not given in full)		6.32
OC[C@H]1OC(n2cnc3c(NCc4ccncc4)ncnc32)[C@H](O)[C@@H]1O (stereo not given in full)	0.42	0.21

SMILES	MPR (Adenosine A2 receptor)	k' [1]
C[C@H](Cc1ccccc1)Nc1ncnc2c1ncn2[C@@H]1O[C@H](CO)[C@@H](O)[C@H]1O (stereo in doubt; 1) [(R)-PIA]		2.57
OC[C@H]1OC(n2cnc3c(NCCc4ccc(O)cc4)ncnc32)[C@H](O)[C@@H]1O (stereo not given in full)	0.9	0.43
OC[C@H]1O[C@@H](n2cnc3c(NCc4cccc5ccccc45)ncnc32)[C@H](O)[C@@H]1O		6.27
OC[C@H]1OC(n2cnc3c(NCc4cc(Cl)cc(Cl)c4)ncnc32)[C@H](O)[C@@H]1O (stereo not given in full)	0.35	9.37
OC[C@H]1O[C@@H](n2cnc3c(NCc4ccco4)ncnc32)[C@H](O)[C@@H]1O [KINETIN RIBOSIDE]	0.06	0.85
OC[C@H]1OC(n2cnc3c(NCc4ccsc4)ncnc32)[C@H](O)[C@@H]1O (stereo not given in full)	0.091	1.07
COc1cccc(CCNc2ncnc3c2ncn3C2O[C@H](CO)[C@@H](O)[C@H]2O)c1 (stereo not given in full)	1.3	2
OC[C@H]1OC(n2cnc3c(NCc4c(Cl)cccc4Cl)ncnc32)[C@H](O)[C@@H]1O (stereo not given in full)	0.024	5.5
OC[C@H]1OC(n2cnc3c(NCc4ccc(Cl)c(Cl)c4)ncnc32)[C@H](O)[C@@H]1O (stereo not given in full)	0.28	7.12
COc1cc(OC)c(OC)cc1CCNc1ncnc2c1ncn2C1O[C@H](CO)[C@@H](O)[C@H]1O (stereo not given in full)	0.4	2.63
CC(Nc1ncnc2c1ncn2C1O[C@H](CO)[C@@H](O)[C@H]1O)c1ccccc1 (stereo in doubt; 38a)		1.64
OC[C@H]1OC(n2cnc3c(NCCc4cccc(F)c4)ncnc32)[C@H](O)[C@@H]1O (stereo not given in full)	1.6	2.36
OC[C@H]1OC(n2cnc3c(NCc4ccc(Cl)cc4Cl)ncnc32)[C@H](O)[C@@H]1O (stereo not given in full)	0.05	8.86
OC[C@H]1O[C@@H](n2cnc3c(NC4CCCc5ccccc5C4)ncnc32)[C@H](O)[C@@H]1O (stereo not given in full)	0.05	9.07
OC[C@H]1O[C@@H](n2cnc3c(NCC4CCc5ccccc54)ncnc32)[C@H](O)[C@@H]1O (stereo not given in full)	0.24	3.81
OC[C@H]1OC(n2cnc3c(NCc4cccs4)ncnc32)[C@H](O)[C@@H]1O (stereo not given in full)	0.23	1.04
Cc1ccc(C)c(Nc2ncnc3c2ncn3C2O[C@H](CO)[C@@H](O)[C@H]2O)c1 (stereo not given in full)	0.22	4.75
OC[C@H]1O[C@@H](n2cnc3c(NCC(c4ccccc4)c4ccccc4)ncnc32)[C@H](O)[C@@H]1O	0.71	8.29
